Experimental data as given in patent publication US10160755B2 (Plexxikon Inc., priority 2015, dated 2018).
Substitutions are numbered along the chain they refer to.

Legend:
[1] = target: T1, BA/F3-FLT3-ITD + D835Y cells (Homo sapiens, UniProt P36888, D835Y, cells depend on it, form not given); test: BA/F3-FLT3-ITD + D835Y cell proliferation assay (CellTiter-Glo); type: cell-based, murine; settings: BaF3 cells, read-out: BaF3_FLT3_ITD/D835Y IC50
T1 sequence (P36888 1-993 D835Y): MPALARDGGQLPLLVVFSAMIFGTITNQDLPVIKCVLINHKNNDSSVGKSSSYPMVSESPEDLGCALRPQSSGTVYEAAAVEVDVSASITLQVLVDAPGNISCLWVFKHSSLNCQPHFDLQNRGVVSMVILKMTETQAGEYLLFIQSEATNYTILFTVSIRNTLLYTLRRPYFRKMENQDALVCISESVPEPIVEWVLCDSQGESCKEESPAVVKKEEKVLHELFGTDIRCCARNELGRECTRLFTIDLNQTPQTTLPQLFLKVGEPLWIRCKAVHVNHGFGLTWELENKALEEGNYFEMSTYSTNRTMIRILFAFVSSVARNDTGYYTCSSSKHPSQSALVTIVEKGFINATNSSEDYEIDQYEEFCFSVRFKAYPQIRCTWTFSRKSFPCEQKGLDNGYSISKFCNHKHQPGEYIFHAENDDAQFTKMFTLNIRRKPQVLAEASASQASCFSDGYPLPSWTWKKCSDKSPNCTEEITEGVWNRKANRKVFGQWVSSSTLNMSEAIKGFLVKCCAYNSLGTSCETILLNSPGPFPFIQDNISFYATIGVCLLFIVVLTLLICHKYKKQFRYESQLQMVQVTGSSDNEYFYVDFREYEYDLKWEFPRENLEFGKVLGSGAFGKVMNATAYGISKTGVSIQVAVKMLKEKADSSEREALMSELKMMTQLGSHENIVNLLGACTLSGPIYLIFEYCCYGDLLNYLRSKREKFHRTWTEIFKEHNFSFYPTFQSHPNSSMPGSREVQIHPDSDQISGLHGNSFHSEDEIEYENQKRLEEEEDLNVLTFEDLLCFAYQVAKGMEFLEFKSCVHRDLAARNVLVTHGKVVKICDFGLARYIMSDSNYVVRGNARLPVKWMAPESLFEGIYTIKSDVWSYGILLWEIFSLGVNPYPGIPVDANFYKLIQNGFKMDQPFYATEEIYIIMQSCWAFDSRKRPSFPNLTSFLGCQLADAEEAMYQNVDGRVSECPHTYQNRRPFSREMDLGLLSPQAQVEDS
Description: The FLT3 inhibitors may also be assessed using leukemia cell lines that express endogenous FLT3-ITD or cells that are engineered to express wild-type or mutant FLT3. The cells expressing endogenous FLT3 are dependent upon FLT3 catalytic activity for growth. For the engineered cells, murine BA/F3 cells were transfected with full-length FLT3 (either wild-type, or containing the ITD, D835Y, or F691L mutations, as noted). The parental BA/F3 cells are dependent upon Interleukin-3 (IL-3) for survival, and introduction of the FLT3 constructs renders these cells dependent upon FLT3 kinase activity when cultured in the absence of IL-3. Engineered BA/F3 cell growth assays can be performed in either the absence or presence of IL-3, to assess the compound inhibition of FLT3 or to detect the presence of off-target activity, respectively. Inhibitors of FLT3 kinase activity reduce or eliminate the FLT3 oncogenic signaling, resulting in reduced cell proliferation. This inhibition is measured as a function of compound concentration to assess IC50 values.
Cells were seeded at 1×10^4 cells per well of a 96 well cell culture plate in 50 μl of cell culture medium. Compounds were dissolved in DMSO, typically at a concentration of 5 mM and were serially diluted 1:3 for a total of eight points and added to the cells to final concentrations of 10, 3.3, 1.1, 0.37, 0.12, 0.041, 0.014 and 0.0046 μM in 100 μl cell culture medium (final concentration 0.2% DMSO). […] The cells were incubated at 37° C., 5% CO2 for three days. CellTiter-Glo Buffer (Promega Cell Viability Assay catalog #G7573) and substrate were equilibrated to room temperature, and enzyme/substrate Recombinant Firefly Luciferase/Beetle Luciferin was reconstituted. […] The plates were read on a Tecan M1000 using Luminescence protocol modified to read 0.1 s per well. The luminescence reading assesses the ATP content, which correlates directly with cell number such that the reading as a function of compound concentration was used to determine the IC50 value.

FLT3-ITD = target: T2, FLT3-ITD (Homo sapiens, UniProt P36888); test: FLT3-ITD biochemical kinase assay (AlphaScreen)
T2 construct: FLT3-ITD; Invitrogen #PV6190
T2 sequence (P36888 1-993): T1 sequence (P36888 1-993 D835Y) with Y835D
Summary of the method: (§1)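 Recombinant kinase, biotin-GG(EEEEY)10EE 30 nM final, ATP 10 μM (D835Y) / 100 μM (ITD). Stop/detect: SA donor beads 20 min RT, then PY20 acceptor beads 60 min RT. AlphaScreen 580 nm signal; IC50.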

FLT3-D835Y = target: T3, FLT3-D835Y (Homo sapiens, UniProt P36888, D835Y); test: FLT3-D835Y biochemical kinase assay (AlphaScreen)
T3 construct: purchased Invitrogen PV3967
T3 sequence (P36888 27-993 D835Y): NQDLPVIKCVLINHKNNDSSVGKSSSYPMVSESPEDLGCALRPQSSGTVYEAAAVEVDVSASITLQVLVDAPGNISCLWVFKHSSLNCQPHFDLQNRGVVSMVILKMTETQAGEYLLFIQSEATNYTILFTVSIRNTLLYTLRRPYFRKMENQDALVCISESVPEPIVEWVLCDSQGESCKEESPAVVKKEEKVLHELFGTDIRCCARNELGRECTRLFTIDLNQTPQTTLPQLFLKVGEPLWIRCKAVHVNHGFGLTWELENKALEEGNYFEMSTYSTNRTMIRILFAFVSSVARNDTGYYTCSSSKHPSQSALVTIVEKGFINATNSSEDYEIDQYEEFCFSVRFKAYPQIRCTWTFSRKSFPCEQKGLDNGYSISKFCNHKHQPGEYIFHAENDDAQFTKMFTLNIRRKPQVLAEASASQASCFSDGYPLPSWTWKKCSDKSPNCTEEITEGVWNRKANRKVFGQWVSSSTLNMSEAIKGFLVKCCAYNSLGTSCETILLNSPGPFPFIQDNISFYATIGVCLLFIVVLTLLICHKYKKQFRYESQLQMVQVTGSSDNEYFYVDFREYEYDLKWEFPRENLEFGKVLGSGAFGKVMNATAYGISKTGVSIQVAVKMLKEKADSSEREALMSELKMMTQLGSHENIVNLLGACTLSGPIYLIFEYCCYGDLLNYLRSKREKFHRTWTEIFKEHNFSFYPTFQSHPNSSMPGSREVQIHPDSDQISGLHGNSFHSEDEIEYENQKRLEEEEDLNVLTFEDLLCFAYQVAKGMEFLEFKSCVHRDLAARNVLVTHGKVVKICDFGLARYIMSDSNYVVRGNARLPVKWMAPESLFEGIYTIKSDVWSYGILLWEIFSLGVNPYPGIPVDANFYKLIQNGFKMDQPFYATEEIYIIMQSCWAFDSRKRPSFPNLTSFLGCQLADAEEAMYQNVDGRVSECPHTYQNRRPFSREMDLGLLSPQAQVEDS
Summary of the method: as §1

c-Kit = c-Kit (Homo sapiens, UniProt P10721); test: c-Kit biochemical assay (per US 2007/0032519)
Summary of the method: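 Biochemical kinase inhibition run per US 2007/0032519; values reported as binned IC50 ranges (0.0001–1 μM, 1–10 μM, 10–200 μM).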

Chain of c-Kit (P10721 26-976): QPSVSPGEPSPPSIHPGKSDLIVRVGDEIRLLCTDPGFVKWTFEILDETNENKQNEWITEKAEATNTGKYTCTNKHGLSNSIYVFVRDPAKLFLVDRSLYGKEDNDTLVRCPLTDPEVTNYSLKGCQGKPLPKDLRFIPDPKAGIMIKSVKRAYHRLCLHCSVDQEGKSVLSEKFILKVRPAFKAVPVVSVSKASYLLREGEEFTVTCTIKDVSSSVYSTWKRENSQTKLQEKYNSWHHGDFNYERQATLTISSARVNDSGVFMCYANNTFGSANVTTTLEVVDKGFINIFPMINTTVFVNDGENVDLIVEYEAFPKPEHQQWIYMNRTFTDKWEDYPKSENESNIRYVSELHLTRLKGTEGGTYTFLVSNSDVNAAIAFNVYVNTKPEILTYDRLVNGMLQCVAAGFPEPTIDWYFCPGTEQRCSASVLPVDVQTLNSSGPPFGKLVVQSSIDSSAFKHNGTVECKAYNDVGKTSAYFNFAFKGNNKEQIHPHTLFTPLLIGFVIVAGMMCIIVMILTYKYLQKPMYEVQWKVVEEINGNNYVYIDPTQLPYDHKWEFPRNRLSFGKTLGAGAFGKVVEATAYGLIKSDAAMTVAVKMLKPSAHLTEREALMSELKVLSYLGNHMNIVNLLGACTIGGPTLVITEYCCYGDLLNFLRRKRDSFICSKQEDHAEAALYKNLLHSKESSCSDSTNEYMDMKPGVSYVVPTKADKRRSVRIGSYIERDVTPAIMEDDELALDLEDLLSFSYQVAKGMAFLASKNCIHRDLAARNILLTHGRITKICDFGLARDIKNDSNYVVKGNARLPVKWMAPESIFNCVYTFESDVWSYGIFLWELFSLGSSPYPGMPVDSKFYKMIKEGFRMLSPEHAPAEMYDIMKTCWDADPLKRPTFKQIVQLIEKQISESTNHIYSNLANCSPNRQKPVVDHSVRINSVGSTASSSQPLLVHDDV

## COc1cnc2[nH]cc(-c3ccc4[nH]cnc4c3)c2c1 [Compound 2]
[1]
  GI50: 225 nM

## COc1cnc2[nH]cc(-c3ccc4[nH]ccc4c3)c2c1 [Compound 1, reference compound]
[1]
  GI50: 839 nM

## COc1cnc2[nH]cc(-c3ccc4ncsc4c3)c2c1 [Compound 3]
[1]
  GI50: 237 nM

## COc1cnc2[nH]cc(-c3ccc4[nH]nc(C)c4c3)c2c1 [P-083, 5-methoxy-3-(3-methyl-1H-indazol-5-yl)-1H-pyrrolo[2,3-b]pyridine]
FLT3-ITD
  IC50: 0.0001 to 1 µM
FLT3-D835Y
  IC50: 0.0001 to 1 µM
c-Kit
  IC50: 1 to 10 µM

## c1nc2cc(-c3c[nH]c4ncc(OCC5CC5)cc34)ccc2[nH]1 [P-007, 3-(1H-benzimidazol-5-yl)-5-(cyclopropylmethoxy)-1H-pyrrolo[2,3-b]pyridine]
FLT3-ITD
  IC50: 0.0001 to 1 µM
FLT3-D835Y
  IC50: 1 to 10 µM
c-Kit
  IC50: 1 to 10 µM

## COc1cc(-c2cnc3[nH]cc(-c4ccc5ncn(C)c5c4)c3c2)ccn1 [P-042, 5-(2-methoxy-4-pyridyl)-3-(3-methylbenzimidazol-5-yl)-1H-pyrrolo[2,3-b]pyridine]
FLT3-ITD
  IC50: 0.0001 to 1 µM
FLT3-D835Y
  IC50: 0.0001 to 1 µM
c-Kit
  IC50: 1 to 10 µM

## c1cnc2[nH]cc(-c3ccc4ncsc4c3)c2c1 [P-030, 6-(1H-pyrrolo[2,3-b]pyridin-3-yl)-1,3-benzothiazole]
FLT3-ITD
  IC50: 0.0001 to 1 µM
FLT3-D835Y
  IC50: 0.0001 to 1 µM
c-Kit
  IC50: 1 to 10 µM

## CC1(COc2cnc3[nH]cc(-c4ccc5[nH]cnc5c4)c3c2)COC1 [P-008, 3-(1H-benzimidazol-5-yl)-5-[(3-methyloxetan-3-yl)methoxy]-1H-pyrrolo[2,3-b]pyridine]
FLT3-ITD
  IC50: 0.0001 to 1 µM
FLT3-D835Y
  IC50: 1 to 10 µM
c-Kit
  IC50: 1 to 10 µM

## Cc1cnc2[nH]cc(-c3ccc4ncn(C)c4c3)c2c1 [P-018, 1-methyl-6-(5-methyl-1H-pyrrolo[2,3-b]pyridin-3-yl)benzimidazole]
FLT3-ITD
  IC50: 0.0001 to 1 µM
FLT3-D835Y
  IC50: 0.0001 to 1 µM
c-Kit
  IC50: 1 to 10 µM

## COc1ccc(-c2cnc3[nH]cc(-c4ccc5ncn(C)c5c4)c3c2)cn1 [P-040, 5-(6-methoxy-3-pyridyl)-3-(3-methylbenzimidazol-5-yl)-1H-pyrrolo[2,3-b]pyridine]
FLT3-ITD
  IC50: 0.0001 to 1 µM
FLT3-D835Y
  IC50: 0.0001 to 1 µM
c-Kit
  IC50: 1 to 10 µM

## CS(=O)(=O)Nc1cccc(-c2cnc3[nH]cc(-c4ccc5c(c4)N(CC4CC4)CCO5)c3n2)c1 [P-081, N-[3-[7-[4-(cyclopropylmethyl)-2,3-dihydro-1,4-benzoxazin-6-yl]-5H-pyrrolo[2,3-b]pyrazin-2-yl]phenyl]methanesulfonamide]
FLT3-ITD
  IC50: 0.0001 to 1 µM
FLT3-D835Y
  IC50: 0.0001 to 1 µM
c-Kit
  IC50: 10 to 200 µM
